For 21 molecules, IC50 and Ki results are on record in patent US9067871B2, “Aminotetraline derivatives, pharmaceutical compositions containing them, and their use in therapy” (ABBVIE DEUTSCHLAND GMBH & CO KG, priority 2009, dated 2015).

For assay [1], the target named is human GlyT1c (Homo sapiens (Human), UniProt P48067). Briefly: [3H]-Glycine uptake into recombinant CHO cells expressing human GlyT1. The format is cell-based. The protocol: 1. [^3H]-Glycine uptake into recombinant CHO cells expressing human GlyT1: Human GlyT1c expressing recombinant hGlyT1c—5_CHO cells were plated at 20,000 cells per well in 96 well Cytostar-T scintillation microplates (Amersham Biosciences) and cultured to sub-confluency for 24 h. […] 80 μl HBSS buffer were added, followed by 10 μl inhibitor or vehicle (10% DMSO) and 10 μl [^3H]-glycine (TRK71, Amersham Biosciences) to a final concentration of 200 nM for initiation of glycine uptake. The plates were placed in a Wallac Microbeta (PerkinElmer) and continuously counted by solid phase scintillation spectrometry during up to 3 hours. Nonspecific uptake was determined in the presence of 10 μM Org24598.
Sequence of human GlyT1c (P48067 whole entry): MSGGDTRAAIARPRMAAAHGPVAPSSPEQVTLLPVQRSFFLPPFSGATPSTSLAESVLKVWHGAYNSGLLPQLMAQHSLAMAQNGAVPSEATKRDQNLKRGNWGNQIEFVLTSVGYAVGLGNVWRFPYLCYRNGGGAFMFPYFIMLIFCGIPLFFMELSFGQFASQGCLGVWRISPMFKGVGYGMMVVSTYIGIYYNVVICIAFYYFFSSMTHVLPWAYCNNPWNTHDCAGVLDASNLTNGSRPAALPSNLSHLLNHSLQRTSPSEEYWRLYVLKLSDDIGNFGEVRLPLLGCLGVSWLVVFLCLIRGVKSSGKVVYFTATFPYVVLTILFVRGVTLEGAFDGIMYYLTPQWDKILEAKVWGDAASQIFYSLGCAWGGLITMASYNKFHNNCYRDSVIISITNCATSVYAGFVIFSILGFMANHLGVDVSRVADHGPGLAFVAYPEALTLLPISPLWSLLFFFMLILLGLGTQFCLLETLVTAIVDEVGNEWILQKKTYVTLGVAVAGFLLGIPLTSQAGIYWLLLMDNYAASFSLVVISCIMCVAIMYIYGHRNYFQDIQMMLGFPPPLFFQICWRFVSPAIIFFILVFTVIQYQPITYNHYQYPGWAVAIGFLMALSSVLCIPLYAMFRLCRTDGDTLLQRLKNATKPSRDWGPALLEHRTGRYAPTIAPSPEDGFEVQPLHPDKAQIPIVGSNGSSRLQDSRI

Assay [2] concerns the target human GlyT1c transporter (Homo sapiens (Human), UniProt P48067). Briefly: Radioligand binding assay using recombinant CHO cell membranes expressing human GlyT1. The conditions noted are these: read-out: radioligand binding Kiapp. From the text:
2. Radioligand binding assays using recombinant CHO cell membranes expressing human GlyT1: […]

Where [3] appears, read: hGlyT1c_5_CHO cells, 200 nM [3H]-glycine.
The mark [4] stands for this setting: human GlyT1c-expressing CHO cell membranes.

Structures can show the parent of a compound that is named as a salt. Where two headings read alike, the source gives them in different places.

Sequence of human GlyT1c transporter (P48067 whole entry): as above

A word on the IC50: it is the concentration that inhibits the measured activity by half. Consider `CCOC(=O)NC1CCc2ccc(OCCNC(=O)OC(C)(C)C)cc2C1Cc1ccc(Cl)c(Cl)c1` (stereo not drawn) [Example 1, [7-(2-tert-Butoxycarbonylamino-ethoxy)-1-(3,4-dichloro-benzyl)-1,2,3,4-tetrahydro-naphthalen-2-yl]-carbamic acid ethyl ester], for which, in assay [1] (setting [3]), the IC50 is no more than 1000 µM. Further, the Ki in assay [2] (setting [4]) is no more than 10 µM.

As for `CCOC(=O)NC1CCc2ccc(OCCNS(=O)(=O)c3cccs3)cc2C1Cc1ccc(Cl)cc1Cl` (stereo not drawn) [Example 63, {1-(2,4-Dichloro-benzyl)-7-[2-(thiophene-2-sulfonylamino)-ethoxy]-1,2,3,4-tetrahydronaphthalen-2-yl}-carbamic acid ethyl ester], the IC50 in assay [1] (setting [3]) is no less than 100 µM. Also, in assay [2] (setting [4]), the Ki is no more than 10 µM.

On to `Cc1nc(C)c(S(=O)(=O)NCCOc2ccc3c(c2)C(Cc2cccc(Cl)c2)C(N)CC3)s1` (stereo not drawn) [Example 57, 2,4-Dimethyl-thiazole-5-sulfonic acid {2-[7-amino-8-(3-chloro-benzyl)-5,6,7,8-tetrahydronaphthalen-2-yloxy]-ethyl}-amide], for which, in assay [1] (setting [3]), the IC50 is no more than 10 µM. For the same molecule, the Ki in assay [2] (setting [4]) was no more than 1 µM.

With `NC1CCc2ccc(OCCNS(=O)(=O)c3cccs3)cc2C1Cc1ccc(Cl)cc1Cl` (stereo not drawn) [Example 72, Thiophene-2-sulfonic acid {2-[7-amino-8-(2,4-dichloro-benzyl)-5,6,7,8-tetrahydronaphthalen-2-yloxy]-ethyl}-amide hydrochloride], the IC50 in assay [1] (setting [3]) was no more than 10 µM. Besides, in assay [2] (setting [4]), the Ki was no more than 10 µM.

In the case of `CCCS(=O)(=O)NCCOc1ccc2c(c1)C(Cc1ccc(Cl)c(Cl)c1)C(N(C)C)CC2` (stereo not drawn) [Example 6], the IC50 in assay [1] (setting [3]) was no more than 1 µM. Also, the Ki in assay [2] (setting [4]) is no more than 0.1 µM.

Turning to `CCCS(=O)(=O)NCCOc1ccc2c(c1)C(Cc1ccc(Cl)c(Cl)c1)C(NC(=O)OCC)CC2` (stereo not drawn) [Example 7], the IC50 in assay [1] (setting [3]) was no more than 10 µM. Besides, the Ki in assay [2] (setting [4]) was no more than 10 µM.

As to `CCOC(=O)NC1CCc2ccc(OCCNS(=O)(=O)c3cnn(C)c3)cc2C1Cc1ccc(Cl)c(Cl)c1` (stereo not drawn) [Example 9, {1-(3,4-Dichloro-benzyl)-7-[2-(1-methyl-1H-pyrazole-4-sulfonylamino)-ethoxy]-1,2,3,4-tetrahydro-naphthalen-2-yl}-carbamic acid ethyl ester], in assay [1] (setting [3]), the IC50 was no more than 1 µM. In assay [2] (setting [4]), the Ki is no more than 1 µM.

Consider `NC1CCc2ccc(OCCNS(=O)(=O)c3ccccc3)cc2C1Cc1ccc(Cl)c(Cl)c1` (stereo not drawn) [Example 16, N-{2-[7-Amino-8-(3,4-dichloro-benzyl)-5,6,7,8-tetrahydro-naphthalen-2-yloxy]-ethyl}-benzenesulfonamide hydrochloride], for which, in assay [1], the 50% inhibitory concentration (IC50) was no more than 10 µM. Moreover, in assay [2], the Ki was no more than 10 µM.

As for `CCOC(=O)NC1CCc2ccc(OCCNS(=O)(=O)c3cnn(CC)c3)cc2C1Cc1cccc(Cl)c1` (stereo not drawn) [Example 61, {1-(3-Chloro-benzyl)-7-[2-(1-ethyl-1H-pyrazole-4-sulfonylamino)-ethoxy]-1,2,3,4-tetrahydro-naphthalen-2-yl}-carbamic acid ethyl ester], the IC50 in assay [1] (setting [3]) was no more than 1000 µM. Moreover, the Ki in assay [2] (setting [4]) was no more than 10 µM.

Turning to `CC(C)(C)OC(=O)NC1CCc2ccc(C#N)cc2C1Cc1ccc(Cl)c(Cl)c1` (stereo not drawn) [Example 34, tert-Butyl[7-cyano-1-(3,4-dichlorobenzyl)-1,2,3,4-tetrahydronaphthalen-2-yl]carbamate], the IC50 in assay [1] (setting [3]) is no more than 1000 µM. In addition, the Ki in assay [2] (setting [4]) was no more than 10 µM.

For `NC1CCc2ccc(OCCNS(=O)(=O)c3cccs3)cc2C1Cc1ccc(Cl)c(Cl)c1` (stereo not drawn) [Example 17, Thiophene-2-sulfonic acid {2-[7-amino-8-(3,4-dichloro-benzyl)-5,6,7,8-tetrahydro-naphthalen-2-yloxy]-ethyl}-amide hydrochloride], the IC50 in assay [1] (setting [3]) was no more than 10 µM. For the same molecule, in assay [2] (setting [4]), the Ki was no more than 1 µM.

In the case of `CCCS(=O)(=O)NCCOc1ccc2c(c1)C(Cc1ccc(Cl)cc1Cl)C(NC(=O)OCC)CC2` (stereo not drawn) [Example 74, {1-(2,4-Dichloro-benzyl)-7-[2-(propane-1-sulfonylamino)-ethoxy]-1,2,3,4-tetrahydronaphthalen-2-yl}-carbamic acid ethyl ester], the IC50 in assay [1] (setting [3]) is no more than 100 µM. In assay [2] (setting [4]), the Ki is no less than 10 µM.

`NC1CCc2ccc(OCCNS(=O)(=O)C3CCNC3)cc2C1Cc1ccc(Cl)c(Cl)c1` (stereo not drawn) [Example 19, Pyrrolidine-3-sulfonic acid {2-[7-amino-8-(3,4-dichloro-benzyl)-5,6,7,8-tetrahydronaphthalen-2-yloxy]-ethyl}-amide hydrochloride]: the IC50 in assay [1] (setting [3]) was no more than 100 µM. Also, in assay [2] (setting [4]), the Ki is no more than 10 µM.

Turning to `NC1CCc2ccc(OCCNS(=O)(=O)c3cccnc3)cc2C1Cc1ccc(Cl)c(Cl)c1` (stereo not drawn) [Example 5, Pyridine-3-sulfonic acid {2-[7-amino-8-(3,4-dichloro-benzyl)-5,6,7,8-tetrahydro-naphthalen-2-yloxy]-ethyl}-amide hydrochloride], in assay [1] (setting [3]), the IC50 was no more than 1 µM. For the same molecule, in assay [2] (setting [4]), the Ki was no more than 1 µM.

On to `CCOC(=O)NC1CCc2ccc(OCCNS(=O)(=O)c3ccc(Cl)s3)cc2C1Cc1cccc(Cl)c1` (stereo not drawn) [Example 51, {1-(3-Chloro-benzyl)-7-[2-(5-chloro-thiophene-2-sulfonylamino)-ethoxy]-1,2,3,4-tetrahydronaphthalen-2-yl}-carbamic acid ethyl ester], for which the IC50 in assay [1] (setting [3]) was no more than 1000 µM. The Ki in assay [2] (setting [4]) is no more than 100 µM.

In the case of `N#Cc1ccc2c(c1)C(Cc1ccc(Cl)c(Cl)c1)C(N)CC2` (stereo not drawn) [Example 29, 7-Amino-8-(3,4-dichlorobenzyl)-5,6,7,8-tetrahydronaphthalene-2-carbonitrile trifluoroacetate], the IC50 in assay [1] (setting [3]) is no more than 100 µM. In addition, the Ki in assay [2] (setting [4]) is no more than 10 µM.

`CCOC(=O)NC1CCc2ccc(OCCNS(=O)(=O)c3ccc(C)s3)cc2C1Cc1cccc(Cl)c1` (stereo not drawn) [Example 53, {1-(3-Chloro-benzyl)-7-[2-(5-methyl-thiophene-2-sulfonylamino)-ethoxy]-1,2,3,4-tetrahydro-naphthalen-2-yl}-carbamic acid ethyl ester]: the IC50 in assay [1] (setting [3]) is no more than 1000 µM. Further, in assay [2] (setting [4]), the Ki is no more than 10 µM.

As to `Cc1cc(S(=O)(=O)NCCOc2ccc3c(c2)C(Cc2cccc(Cl)c2)C(N)CC3)c(C)s1` (stereo not drawn) [Example 69, 2,5-Dimethyl-thiophene-3-sulfonic acid {2-[7-amino-8-(3-chloro-benzyl)-5,6,7,8-tetrahydronaphthalen-2-yloxy]-ethyl}-amide hydrochloride], the IC50 in assay [1] (setting [3]) was no more than 10 µM. Further, the Ki in assay [2] (setting [4]) was no more than 1 µM.

On to `CCCS(=O)(=O)N(C)CCOc1ccc2c(c1)C(Cc1cccc(Cl)c1)C(N)CC2` (stereo not drawn) [Example 79, Propane-1-sulfonic acid {2-[7-amino-8-(3-chloro-benzyl)-5,6,7,8-tetrahydronaphthalen-2-yloxy]-ethyl}-methyl-amide hydrochloride], for which the IC50 in assay [1] (setting [3]) is no more than 1 µM. In addition, in assay [2] (setting [4]), the Ki is no more than 0.1 µM.

`Cn1cnc(S(=O)(=O)NCCOc2ccc3c(c2)C(Cc2ccc(Cl)c(Cl)c2)C(N)CC3)c1` (stereo not drawn) [Example 3, N-(2-(7-Amino-8-(3,4-dichlorobenzyl)-5,6,7,8-tetrahydronaphthalen-2-yloxy)ethyl)-1-methyl-1H-imidazole-4-sulfonamide hydrochloride]: the IC50 in assay [1] was no more than 0.01 µM. The Ki in assay [2] was no more than 0.01 µM.

Turning to `CCOC(=O)NC1CCc2ccc(OCCNS(=O)(=O)c3cccnc3)cc2C1Cc1ccc(Cl)c(Cl)c1` (stereo not drawn) [Example 10, {1-(3,4-Dichloro-benzyl)-7-[2-(pyridine-3-sulfonylamino)-ethoxy]-1,2,3,4-tetrahydronaphthalen-2-yl}-carbamic acid ethyl ester], the IC50 in assay [1] (setting [3]) was no more than 100 µM. Moreover, the Ki in assay [2] (setting [4]) was no more than 10 µM.
